Reference: PMC10810651, “Discovery of novel and potent CDK8 inhibitors for the treatment of acute myeloid leukaemia” (Journal of Enzyme Inhibition and Medicinal Chemistry, 2024)

Molecular target: CDK8 (Homo sapiens, UniProt P49336)
Experiment: Cellular thermal shift assay
Type: cell-based
Design: endogenous in cells; host or cells: HCT-116
Settings: HCT-116 cells, 5 μM, 6 h; DMSO 49 °C; western blot
Method: Here, in order to identify compound 12 could bind CDK8, HCT-116 cells, a CDK8 high expression cell line, were treated with 5 μM compound 12 and DMSO for 6 h, respectively. Cell suspension was divided into 11 PCR tubes equally, then the samples were heated from 37 to 67 °C at intervals of 3 °C and the results were analysed through western blot. […] However, CDK8 was degraded almost completely at 55 °C after treated with compound 12, which indicated compound 12 enhanced the thermal stability of CDK8 and compound 12 could bind CDK8.
CO2 atmosphere incubator for 24 h. Then, medium with compound at the concentrations of 100, 20, 4, 0.8, 0.016 μM was added into each well for another 48 h and incubated with CCK-8 (10 μL) for 2 h at 37 °C. The absorbance value at 450 nm was measured by the microplate reader (PerkinElmer Envision).
The kinase inhibition was detected by ADP-Glo™ Kinase Assay (Promega) using a black 384-well plate. […] The data was collected by the microplate reader. […]
were broken by ultr asonic treatment and centrifuged at 12000 rpm for 20 min. The supernatant was analyzed by western blot. […]
After co-treated with 2 μM biotinylated compound and compound 12 for 12 h, HCT-116 cells were lysed with NP-40 containing PMSF and centrifuged at 14000 r for 30 min at 4 °C. […] The samples were analyzed by western blot.

Chain of CDK8 (P49336 whole entry): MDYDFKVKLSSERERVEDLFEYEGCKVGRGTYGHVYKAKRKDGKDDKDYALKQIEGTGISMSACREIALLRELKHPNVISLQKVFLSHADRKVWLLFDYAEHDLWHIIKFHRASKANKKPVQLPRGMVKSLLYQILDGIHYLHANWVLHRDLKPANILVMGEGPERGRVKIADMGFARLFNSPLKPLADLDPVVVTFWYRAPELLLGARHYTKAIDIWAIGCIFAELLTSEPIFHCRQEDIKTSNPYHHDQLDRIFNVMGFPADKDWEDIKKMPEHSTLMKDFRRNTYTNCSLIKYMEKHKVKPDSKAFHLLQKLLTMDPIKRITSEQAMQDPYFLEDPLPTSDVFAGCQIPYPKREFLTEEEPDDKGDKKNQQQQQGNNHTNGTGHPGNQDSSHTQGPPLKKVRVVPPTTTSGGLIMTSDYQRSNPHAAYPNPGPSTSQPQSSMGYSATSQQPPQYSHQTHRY

With `NC(=O)c1cccc(-c2cnc3[nH]cc(-c4ccoc4)c3c2)c1` [Compound 12, 3-(3-(furan-3-yl)-1H-pyrrolo[2,3-b]pyridin-5-yl)benzamide] the “Temperature at which CDK8 was degraded almost completely” value was 55 °C.
